# Laboratory results reported in patent US20090311349A1, “METHOD OF QUANTIFICATION OF MULTIPLE BIOACTIVES FROM BOTANICAL COMPOSITIONS” (priority 2008, published 2009).
# Marks after values point to notes of the source that are not given here.
# Experiments:
# U2OS-ERα cells [1] = details: 1 μM raloxifene, 18 h, relative to untreated
# human ERβ = molecular target: T1, human ERβ (Homo sapiens, UniProt Q92731); test: ERE-tk-Luc reporter activation in U2OS cells transfected with ERβ; type: cell-based; details: activation by MF101 (MF101 and estradiol)
# T1 construct: expressed in transfected cells; host or cells: U2OS osteosarcoma cells
# U2OS-ERβ cells [2] = details: 1 μM raloxifene, 18 h, relative to untreated
# U2OS-ERβ cells [3] = test: Affymetrix U95Av2 microarray, U2OS-ERβ cells; type: cell-based, human
# Protocol: (§1) To identify genes regulated by ERα and/or ERβ, the U2OS-ERα and U2OS-ERβ cell lines were treated with doxycycline for 18 h in the absence or presence of 10 nM E2. Total RNA was used to prepare cRNA for hybridization with the human U95Av2 Affymetrix microarrays, which contain 12,600 known genes. Six sets of comparative expression data of untreated vs. each treated group were used to determine the genes regulated in ERα or ERβ cells.
# (§2) Microarray data obtained from human Affymetrix U95Av2 gene chips from untreated vs. ligand-treated samples were analyzed using the Affymetrix Microarray Suite Version 5.0. Candidate genes displaying a statistically significant (p<0.05) increase or decrease signal changes relative to controls in at least three experiments were further selected by a ±0.8 signal log ratio mean cut-off. […] Fold-changes in the U2OS-ERα and U2OS-ERβ samples (in parentheses) were calculated relative to the untreated samples.
# U2OS-ERα cells [4] = test: Affymetrix U95Av2 microarray, U2OS-ERα cells; type: cell-based, human
# Protocol: as §1, §2
# U2OS-ERα cells [5] = test: Affymetrix U95Av2 microarray, U2OS-ERα cells; type: cell-based, human; details: 1 μM raloxifene, 18 h
# [6] = test system: U2OS-ERα and U2OS-ERβ cell lines; test: Affymetrix U95Av2 microarray, both U2OS-ERα and U2OS-ERβ cell lines; type: cell-based, human
# U2OS-ERβ cells [7] = test: Affymetrix U95Av2 microarray, U2OS-ERβ cells; type: cell-based, human; details: 1 μM raloxifene, 18 h
# breast cancer graft = test: Breast cancer graft growth, control vs DES vs MF101; type: in vivo
# Source text: (§3) In a similar experiment, the effect of MF101 on breast cancer cells was compared to that of diethylstilbestrol (DES). […] FIGS. 3G and 3H show the effect of control, DES and MF101 on a breast cancer graft mass (FIG. 3G) and a uterine horn mass (FIG. 3H).
# uterine horn = test: Uterine horn mass, control vs DES vs MF101; type: in vivo
# Source text: as §3
# MCF-7 cells = test: [3H] thymidine incorporation in adenovirus-infected MCF-7 cells; type: cell-based, human; details: presence of E2; 10 days
# Protocol: To investigate the role of ERα in breast cancer, the effects of E2 on cell proliferation in MCF-7 cells that express only ERα were studied. […] (An, supra, 2001). […] To investigate the role of ERβ on the proliferation of breast cancer cells, an adenovirus (Ad) was used to deliver ERβ into a high percentage of cells. MCF-7 cells were infected for 24 h with Ad-ERβ or Ad-LacZ to control for potential non-specific effects of the virus. The infected cells were grown for 10 days in the absence or presence of E2, after which DNA synthesis was measured by [3H] thymidine incorporation in vitro. […] E2 augmented the inhibition of cell proliferation to 70% in the Ad-ERβ-infected cells. Similar results were observed using 100 multiplicity of infection (MOI) of Ad-ERβ. The observation that the inhibition of cell proliferation by ERβ was predominantly ligand-independent may result from residual E2 in stripped serum or retained in cells infected with ERβ, or unliganded properties of […].
# [8] = test system: U2OS-ERα and U2OS-ERβ cell lines; test: Affymetrix U95Av2 microarray, both U2OS-ERα and U2OS-ERβ cell lines; type: cell-based, human; details: for genes Activated, α + β / genes Repressed, α + β: 10 nM E2 or 1 μM tamoxifen
# Protocol: as §1, §2
# [9] = 10 nM E2, 1 μM raloxifene or 1 μM tamoxifen, 18 h
# [10] = 1 μM raloxifene or 1 μM tamoxifen, 18 h
# T1 sequence (Q92731 whole entry): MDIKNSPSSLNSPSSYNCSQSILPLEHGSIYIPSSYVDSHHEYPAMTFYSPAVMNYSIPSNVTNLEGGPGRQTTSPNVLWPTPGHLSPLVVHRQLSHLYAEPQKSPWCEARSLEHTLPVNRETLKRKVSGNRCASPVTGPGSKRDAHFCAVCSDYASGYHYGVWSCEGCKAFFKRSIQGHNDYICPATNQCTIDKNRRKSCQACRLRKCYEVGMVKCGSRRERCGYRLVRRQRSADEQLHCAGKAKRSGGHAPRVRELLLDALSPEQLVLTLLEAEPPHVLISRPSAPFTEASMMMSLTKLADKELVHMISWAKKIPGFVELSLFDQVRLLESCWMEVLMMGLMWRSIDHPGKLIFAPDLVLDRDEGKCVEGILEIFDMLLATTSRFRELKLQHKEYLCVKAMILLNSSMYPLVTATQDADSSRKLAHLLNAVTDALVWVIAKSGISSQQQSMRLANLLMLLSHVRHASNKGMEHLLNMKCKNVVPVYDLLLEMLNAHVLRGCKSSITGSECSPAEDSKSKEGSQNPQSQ
smiles,measurement,setting,value
O=C(c1ccc(OCCN2CCCCC2)cc1)c1c(-c2ccc(O)cc2)sc2cc(O)ccc12 [raloxifene],"Fold-change by real-time PCR, NKG2C (α)",U2OS-ERα cells [1],7.54 fold
same,blockade of ERE-tk-Luc activation through ERβ,human ERβ,blocked
same,"Fold-change by real-time PCR, NKG2C (β)",U2OS-ERβ cells [2],0.36 fold
same,"genes Activated, β only",U2OS-ERβ cells [3]; [9],52 genes
same,"genes Activated, β only, relative percentage",U2OS-ERβ cells [3]; [9],(27.4%)
same,"genes Repressed, β only",U2OS-ERβ cells [3]; [9],101 genes
same,"genes Repressed, β only, relative percentage",U2OS-ERβ cells [3]; [9],(53.2%)
same,"genes Activated, α only",U2OS-ERα cells [4]; [9],10 genes
same,"genes Activated, α only, relative percentage",U2OS-ERα cells [4]; [9],(5.3%)
same,"genes Repressed, α only",U2OS-ERα cells [4]; [9],10 genes
same,"genes Repressed, α only, relative percentage",U2OS-ERα cells [4]; [9],(5.3%)
same,"Mean signal log ratio ± S.E., NKG2C (α)",U2OS-ERα cells [5],2.40 ± 0.82
same,"common genes with opposite expression patterns (*), relative percentage",[6]; [10],(8.9%)
same,common genes with opposite expression patterns in ERα compared to ERβ cells (*),[6]; [10],17* genes
same,"Mean signal log ratio ± S.E., NKG2C (β)",U2OS-ERβ cells [7],−5.20 ± 0.08
"CC/C(=C(/CC)c1ccc(O)cc1)c1ccc(O)cc1 [DES, diethylstilbestrol]",growth of xenograft (breast cancer graft mass),breast cancer graft; vs control,substantial increase
same,proliferation of breast cancer cells (FIGS. 3D-3F),breast cancer graft; vs control-treated,proliferation-stimulating effect
same,uterine horn growth (mass),uterine horn,substantial increase
C[C@]12CC[C@@H]3c4ccc(O)cc4CC[C@H]3[C@@H]1CC[C@@H]2O [estradiol],inhibition of cell proliferation in Ad-ERβ-infected MCF-7 cells,MCF-7 cells,70%
same,genes regulated only in the U2OS-ERβ cells,U2OS-ERβ cells [3]; 10 nM E2,125 genes
same,"genes Activated, β only",U2OS-ERβ cells [3]; [9],87 genes
same,"genes Repressed, β only",U2OS-ERβ cells [3]; [9],38 genes
same,genes regulated only in the U2OS-ERα cells,U2OS-ERα cells [4]; 10 nM E2,65 genes
same,"genes Activated, α only",U2OS-ERα cells [4]; [9],33 genes
same,"genes Repressed, α only",U2OS-ERα cells [4]; [9],32 genes
same,share of genes regulated by both ERα and ERβ,[8]; 10 nM E2,17%
same,genes regulated in U2OSα and U2OSβ cell lines,"[8]; 10 nM E2, 1 μM raloxifene or 1 μM tamoxifen, 18 h, p<0.05, listed as E2",228 genes
same,genes regulated by both ERα and ERβ,"[8]; 10 nM E2, of the 228",38 genes
same,"genes Activated, α + β",[8]; 18 h,34 genes
same,"genes Repressed, α + β",[8]; 18 h,4 genes
CC/C(=C(\c1ccccc1)c1ccc(OCCN(C)C)cc1)c1ccccc1 [tamoxifen],"genes Activated, β only",U2OS-ERβ cells [3]; [9],26 genes
same,"genes Repressed, β only",U2OS-ERβ cells [3]; [9],129 genes
same,"genes Activated, α only",U2OS-ERα cells [4]; [9],21 genes
same,"genes Repressed, α only",U2OS-ERα cells [4]; [9],38 genes
same,share of genes regulated by tamoxifen also regulated by raloxifene,[6],27%
same,common genes with opposite expression patterns in ERα compared to ERβ cells (*),[6]; [10],12* genes
same,"genes Activated, α + β",[8]; 18 h,1 genes
same,"genes Repressed, α + β",[8]; 18 h,9 genes
